Data as given in ChEMBL document CHEMBL1201862, “PubChem BioAssay data set” (2004).
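Cells were grown in 96-well plates and exposed to each compound for 48 hours at five concentrations; endpoints were interpolated linearly between bracketing concentrations, or set to the highest concentration if not reached. GI50 is the concentration that inhibits growth by half.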 Active and inactive are the calls of the source. Cut-off read from the data, not from the text of the source: active = GI50 up to about 1.1 µM and inactive = higher.

Experiments:
Test in all cases: NCI-60 cell line screen, 48 h
UACC-62 = tested on: UACC-62
SR = tested on: SR
ACHN = tested on: ACHN
T47D = tested on: T47D
SF-539 = tested on: SF-539
SNB-19 = tested on: SNB-19
SW-620 = tested on: SW-620
IGROV-1 = tested on: IGROV-1
RXF 393 = tested on: RXF 393
HOP-92 = tested on: HOP-92
U-251 = tested on: U-251
Hs-578T = tested on: Hs-578T
MDA-MB-435 = tested on: MDA-MB-435
A498 = tested on: A498
SK-MEL-28 = tested on: SK-MEL-28
OVCAR-4 = tested on: OVCAR-4
RPMI-8226 = tested on: RPMI-8226
OVCAR-3 = tested on: OVCAR-3
NCI-H522 = tested on: NCI-H522
HCT-15 = tested on: HCT-15
EKVX = tested on: EKVX
UO-31 = tested on: UO-31
SK-OV-3 = tested on: SK-OV-3
HT-29 = tested on: HT-29
SF-268 = tested on: SF-268
OVCAR-8 = tested on: OVCAR-8
MDA-MB-231 = tested on: MDA-MB-231
PC-3 = tested on: PC-3
MDA-N = tested on: MDA-N
NCI-H226 = tested on: NCI-H226
MOLT-4 = tested on: MOLT-4
NCI-H460 = tested on: NCI-H460
SK-MEL-2 = tested on: SK-MEL-2
COLO 205 = tested on: COLO 205
HL-60 = tested on: HL-60
OVCAR-5 = tested on: OVCAR-5
BT-549 = tested on: BT-549
NCI-H23 = tested on: NCI-H23
SN12C = tested on: SN12C
SF-295 = tested on: SF-295
KM12 = tested on: KM12
SNB-75 = tested on: SNB-75
CCRF-CEM = tested on: CCRF-CEM
MCF7 = tested on: MCF7
M14 = tested on: M14
NCI/ADR-RES = tested on: NCI/ADR-RES
SK-MEL-5 = tested on: SK-MEL-5
A549 = tested on: A549
CAKI-1 = tested on: CAKI-1
HCC 2998 = tested on: HCC 2998
HCT-116 = tested on: HCT-116
786-0 = tested on: 786-0
K562 = tested on: K562
UACC-257 = tested on: UACC-257
Malme-3M = tested on: Malme-3M
DU-145 = tested on: DU-145
LOX IMVI = tested on: LOX IMVI
HOP-62 = tested on: HOP-62
TK-10 = tested on: TK-10

CC1(C)CC2=C(Sc3ccccc3N2)C(=O)C1C(=O)C(=O)Nc1cc(Cl)ccc1Cl (stereo not drawn)
GI50 (UACC-62): > 100 µM (inactive) | GI50 (SR): > 100 µM (inactive) | GI50 (ACHN): > 100 µM (inactive) | GI50 (T47D): 82.8 µM (inactive) | GI50 (SF-539): > 100 µM (inactive) | GI50 (SNB-19): > 100 µM (inactive) | GI50 (SW-620): > 100 µM (inactive) | GI50 (IGROV-1): > 100 µM (inactive) | GI50 (RXF 393): > 100 µM (inactive) | GI50 (HOP-92): > 100 µM (inactive) | GI50 (U-251): > 100 µM (inactive) | GI50 (Hs-578T): > 100 µM (inactive) | GI50 (MDA-MB-435): > 100 µM (inactive) | GI50 (A498): > 100 µM (inactive) | GI50 (SK-MEL-28): > 100 µM (inactive) | GI50 (OVCAR-4): 30.1 µM (inactive) | GI50 (RPMI-8226): > 100 µM (inactive) | GI50 (OVCAR-3): > 100 µM (inactive) | GI50 (NCI-H522): > 100 µM (inactive) | GI50 (HCT-15): > 100 µM | GI50 (EKVX): > 100 µM (inactive) | GI50 (UO-31): > 100 µM (inactive) | GI50 (SK-OV-3): > 100 µM (inactive) | GI50 (HT-29): 77.6 µM (inactive) | GI50 (SF-268): > 100 µM (inactive) | GI50 (OVCAR-8): > 100 µM (inactive) | GI50 (MDA-MB-231): > 100 µM (inactive) | GI50 (PC-3): 84.5 µM (inactive) | GI50 (MDA-N): > 100 µM (inactive) | GI50 (NCI-H226): > 100 µM (inactive) | GI50 (MOLT-4): 60 µM (inactive) | GI50 (NCI-H460): 14.9 µM (inactive) | GI50 (SK-MEL-2): > 100 µM (inactive) | GI50 (COLO 205): > 100 µM (inactive) | GI50 (HL-60): > 100 µM (inactive) | GI50 (OVCAR-5): > 100 µM (inactive) | GI50 (BT-549): > 100 µM (inactive) | GI50 (NCI-H23): > 100 µM (inactive) | GI50 (SN12C): > 100 µM (inactive) | GI50 (SF-295): > 100 µM (inactive) | GI50 (KM12): > 100 µM (inactive) | GI50 (SNB-75): 38.2 µM (inactive) | GI50 (CCRF-CEM): > 100 µM (inactive) | GI50 (MCF7): > 100 µM (inactive) | GI50 (M14): > 100 µM (inactive) | GI50 (NCI/ADR-RES): 63.2 µM (inactive) | GI50 (SK-MEL-5): 42.1 µM (inactive) | GI50 (A549): > 100 µM (inactive) | GI50 (CAKI-1): > 100 µM (inactive) | GI50 (HCC 2998): > 100 µM (inactive) | GI50 (HCT-116): > 100 µM (inactive) | GI50 (786-0): > 100 µM (inactive) | GI50 (K562): > 100 µM (inactive) | GI50 (UACC-257): > 100 µM (inactive) | GI50 (Malme-3M): > 100 µM (inactive) | GI50 (DU-145): > 100 µM (inactive) | GI50 (LOX IMVI): > 100 µM (inactive)

O=C(NCP(=O)(c1ccccc1)c1ccccc1)OCc1ccccc1
GI50 (UACC-62): > 100 µM (inactive) | GI50 (SR): > 100 µM (inactive) | GI50 (ACHN): > 100 µM (inactive) | GI50 (T47D): > 100 µM (inactive) | GI50 (SF-539): > 100 µM (inactive) | GI50 (SNB-19): > 100 µM (inactive) | GI50 (SW-620): > 100 µM (inactive) | GI50 (IGROV-1): > 100 µM (inactive) | GI50 (RXF 393): 82.6 µM (inactive) | GI50 (HOP-92): 40 µM (inactive) | GI50 (U-251): 84.5 µM (inactive) | GI50 (Hs-578T): 43.6 µM (inactive) | GI50 (MDA-MB-435): > 100 µM (inactive) | GI50 (A498): > 100 µM (inactive) | GI50 (SK-MEL-28): > 100 µM (inactive) | GI50 (OVCAR-4): 43.5 µM (inactive) | GI50 (HOP-62): 27.4 µM (inactive) | GI50 (RPMI-8226): > 100 µM (inactive) | GI50 (OVCAR-3): 54.3 µM (inactive) | GI50 (NCI-H522): 39.4 µM (inactive) | GI50 (HCT-15): > 100 µM | GI50 (EKVX): > 100 µM (inactive) | GI50 (UO-31): > 100 µM (inactive) | GI50 (SK-OV-3): 67.3 µM (inactive) | GI50 (HT-29): > 100 µM (inactive) | GI50 (SF-268): 21.4 µM (inactive) | GI50 (OVCAR-8): > 100 µM (inactive) | GI50 (MDA-MB-231): 60.1 µM (inactive) | GI50 (PC-3): 64.3 µM (inactive) | GI50 (MDA-N): > 100 µM (inactive) | GI50 (NCI-H226): > 100 µM (inactive) | GI50 (MOLT-4): > 100 µM (inactive) | GI50 (NCI-H460): > 100 µM (inactive) | GI50 (SK-MEL-2): > 100 µM (inactive) | GI50 (COLO 205): > 100 µM (inactive) | GI50 (HL-60): > 100 µM (inactive) | GI50 (OVCAR-5): > 100 µM (inactive) | GI50 (BT-549): > 100 µM (inactive) | GI50 (NCI-H23): > 100 µM (inactive) | GI50 (SN12C): > 100 µM (inactive) | GI50 (SF-295): 58.6 µM (inactive) | GI50 (KM12): > 100 µM (inactive) | GI50 (SNB-75): 6.65 µM (inactive) | GI50 (CCRF-CEM): > 100 µM (inactive) | GI50 (MCF7): > 100 µM (inactive) | GI50 (M14): > 100 µM (inactive) | GI50 (NCI/ADR-RES): 73.5 µM (inactive) | GI50 (SK-MEL-5): > 100 µM (inactive) | GI50 (A549): 66.8 µM (inactive) | GI50 (CAKI-1): > 100 µM (inactive) | GI50 (HCC 2998): > 100 µM (inactive) | GI50 (HCT-116): > 100 µM (inactive) | GI50 (TK-10): > 100 µM (inactive) | GI50 (786-0): 37.2 µM (inactive) | GI50 (K562): > 100 µM (inactive) | GI50 (Malme-3M): > 100 µM (inactive) | GI50 (DU-145): > 100 µM (inactive) | GI50 (LOX IMVI): > 100 µM (inactive)

NN=C(CC(O)(C(F)(F)Cl)C(F)(F)Cl)CC(O)(C(F)(F)Cl)C(F)(F)Cl
GI50 (UACC-62): > 10 µM (inactive) | GI50 (SR): > 10 µM (inactive) | GI50 (ACHN): > 10 µM (inactive) | GI50 (T47D): > 10 µM (inactive) | GI50 (SF-539): > 10 µM (inactive) | GI50 (SNB-19): > 10 µM (inactive) | GI50 (SW-620): > 10 µM (inactive) | GI50 (IGROV-1): > 10 µM (inactive) | GI50 (RXF 393): > 10 µM (inactive) | GI50 (HOP-92): > 10 µM (inactive) | GI50 (U-251): > 10 µM (inactive) | GI50 (Hs-578T): > 10 µM (inactive) | GI50 (MDA-MB-435): > 10 µM (inactive) | GI50 (A498): > 10 µM (inactive) | GI50 (SK-MEL-28): > 10 µM (inactive) | GI50 (OVCAR-4): > 10 µM (inactive) | GI50 (HOP-62): > 10 µM (inactive) | GI50 (RPMI-8226): > 10 µM (inactive) | GI50 (OVCAR-3): > 10 µM (inactive) | GI50 (NCI-H522): > 10 µM (inactive) | GI50 (HCT-15): > 10 µM | GI50 (EKVX): > 10 µM (inactive) | GI50 (SK-OV-3): > 10 µM (inactive) | GI50 (HT-29): > 10 µM (inactive) | GI50 (SF-268): > 10 µM (inactive) | GI50 (OVCAR-8): > 10 µM (inactive) | GI50 (MDA-MB-231): > 10 µM (inactive) | GI50 (PC-3): > 10 µM (inactive) | GI50 (MDA-N): > 10 µM (inactive) | GI50 (NCI-H226): > 10 µM (inactive) | GI50 (MOLT-4): > 10 µM (inactive) | GI50 (NCI-H460): > 10 µM (inactive) | GI50 (SK-MEL-2): > 10 µM (inactive) | GI50 (COLO 205): > 10 µM (inactive) | GI50 (HL-60): > 10 µM (inactive) | GI50 (OVCAR-5): > 10 µM (inactive) | GI50 (BT-549): > 10 µM (inactive) | GI50 (NCI-H23): > 10 µM (inactive) | GI50 (SN12C): > 10 µM (inactive) | GI50 (SF-295): > 10 µM (inactive) | GI50 (KM12): > 10 µM (inactive) | GI50 (SNB-75): > 10 µM (inactive) | GI50 (CCRF-CEM): > 10 µM (inactive) | GI50 (MCF7): > 10 µM (inactive) | GI50 (M14): > 10 µM (inactive) | GI50 (NCI/ADR-RES): > 10 µM (inactive) | GI50 (SK-MEL-5): > 10 µM (inactive) | GI50 (A549): > 10 µM (inactive) | GI50 (CAKI-1): > 10 µM (inactive) | GI50 (HCC 2998): > 10 µM (inactive) | GI50 (HCT-116): > 10 µM (inactive) | GI50 (TK-10): > 10 µM (inactive) | GI50 (786-0): > 10 µM (inactive) | GI50 (K562): > 10 µM (inactive) | GI50 (UACC-257): > 10 µM (inactive) | GI50 (Malme-3M): > 10 µM (inactive) | GI50 (DU-145): > 10 µM (inactive) | GI50 (LOX IMVI): > 10 µM (inactive)
